The text below walks through data of ChEMBL document CHEMBL1141937, “Inhibition of Tpl2 kinase and TNF-alpha production with 1,7-naphthyridine-3-carbonitriles: synthesis and structure-activity relationships” (Bioorg Med Chem Lett, 2005).

In brackets after ≈: the same amount, converted by molar mass.

For series [1], the target named is T1, Mitogen-activated protein kinase kinase kinase 8 (Homo sapiens, UniProt P41279). The series can be described thus: Inhibitory activity against human Tpl2 kinase via quantification of MEK phosphorylation. It is filed as functional.
Target sequence in this assay (P41279 whole entry): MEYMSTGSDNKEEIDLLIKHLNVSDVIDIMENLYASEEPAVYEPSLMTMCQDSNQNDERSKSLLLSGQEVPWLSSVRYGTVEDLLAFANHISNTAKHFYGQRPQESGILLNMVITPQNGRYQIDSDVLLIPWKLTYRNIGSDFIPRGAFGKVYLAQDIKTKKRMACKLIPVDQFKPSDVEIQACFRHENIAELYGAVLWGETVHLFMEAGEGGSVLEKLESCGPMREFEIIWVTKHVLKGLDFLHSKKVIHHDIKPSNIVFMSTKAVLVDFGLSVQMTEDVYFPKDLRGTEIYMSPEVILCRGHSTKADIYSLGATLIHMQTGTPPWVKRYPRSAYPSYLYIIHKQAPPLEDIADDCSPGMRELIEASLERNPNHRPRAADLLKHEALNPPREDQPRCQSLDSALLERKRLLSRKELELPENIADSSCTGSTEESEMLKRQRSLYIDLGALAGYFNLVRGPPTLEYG
The next series has as its target Protein kinase C (PKC). The series can be described thus: Inhibitory activity against PKC. It is filed as protein assay.
The target in series [2] is Proto-oncogene tyrosine-protein kinase Src (Homo sapiens, UniProt P12931). The series can be described thus: Inhibitory activity against Src.
The target in series [3] is Dual specificity mitogen-activated protein kinase kinase 1 (Homo sapiens, UniProt Q02750). In words: Inhibitory activity against MEK.
In series [4] the target is MAP kinase-activated protein kinase 2 (Homo sapiens, UniProt P49137). In words: Inhibitory activity against MK2.
Series [5] is described as follows: Solubility determined. In kind it is physicochemical.
A short description of series [6]: Plasma binding to human serum albumin. In kind it is ADME. Conditions: read-out: PPB (converted).
Another series has as its target MAP kinase p38 (Homo sapiens, UniProt O15264+Q15759+Q16539+P53778). In words: Inhibitory activity against p38. In kind it is protein assay.
For series [7], the target named is T1, Mitogen-activated protein kinase kinase kinase 8. In words: Inhibition of LPS-induced TNFalpha production in human whole blood.
Target sequence in this assay (P41279 whole entry, looked up): as the sequence (P41279 whole entry) above
Series [8] has the same target. The series can be described thus: Inhibition of LPS-induced TNFalpha production in primary human monocytes.
Target sequence in this assay (P41279 whole entry, looked up): as the sequence (P41279 whole entry) above

Chain of MAP kinase-activated protein kinase 2 (P49137 whole entry): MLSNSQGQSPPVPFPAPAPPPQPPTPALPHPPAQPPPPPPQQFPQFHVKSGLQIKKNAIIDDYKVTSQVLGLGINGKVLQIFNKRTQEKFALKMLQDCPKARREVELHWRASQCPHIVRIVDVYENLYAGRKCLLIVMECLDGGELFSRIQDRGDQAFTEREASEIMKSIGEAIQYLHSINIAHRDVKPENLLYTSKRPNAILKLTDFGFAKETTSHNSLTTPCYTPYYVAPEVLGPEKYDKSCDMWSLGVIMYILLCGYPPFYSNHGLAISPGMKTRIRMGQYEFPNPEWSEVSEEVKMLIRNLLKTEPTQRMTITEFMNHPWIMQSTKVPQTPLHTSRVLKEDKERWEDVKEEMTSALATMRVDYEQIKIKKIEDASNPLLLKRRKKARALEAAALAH
Chain of Dual specificity mitogen-activated protein kinase kinase 1 (Q02750 whole entry): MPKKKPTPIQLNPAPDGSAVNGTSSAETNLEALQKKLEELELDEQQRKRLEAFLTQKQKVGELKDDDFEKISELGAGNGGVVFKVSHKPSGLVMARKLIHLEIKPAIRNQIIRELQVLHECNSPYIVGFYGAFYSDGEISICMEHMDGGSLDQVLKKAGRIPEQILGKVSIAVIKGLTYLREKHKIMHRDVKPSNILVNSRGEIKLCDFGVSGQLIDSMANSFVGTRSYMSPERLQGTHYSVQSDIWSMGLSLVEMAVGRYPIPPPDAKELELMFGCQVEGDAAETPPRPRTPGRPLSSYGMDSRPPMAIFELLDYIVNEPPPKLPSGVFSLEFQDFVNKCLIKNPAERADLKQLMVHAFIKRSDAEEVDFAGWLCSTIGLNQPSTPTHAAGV
Chain of Proto-oncogene tyrosine-protein kinase Src (P12931 2-536 limits assumed): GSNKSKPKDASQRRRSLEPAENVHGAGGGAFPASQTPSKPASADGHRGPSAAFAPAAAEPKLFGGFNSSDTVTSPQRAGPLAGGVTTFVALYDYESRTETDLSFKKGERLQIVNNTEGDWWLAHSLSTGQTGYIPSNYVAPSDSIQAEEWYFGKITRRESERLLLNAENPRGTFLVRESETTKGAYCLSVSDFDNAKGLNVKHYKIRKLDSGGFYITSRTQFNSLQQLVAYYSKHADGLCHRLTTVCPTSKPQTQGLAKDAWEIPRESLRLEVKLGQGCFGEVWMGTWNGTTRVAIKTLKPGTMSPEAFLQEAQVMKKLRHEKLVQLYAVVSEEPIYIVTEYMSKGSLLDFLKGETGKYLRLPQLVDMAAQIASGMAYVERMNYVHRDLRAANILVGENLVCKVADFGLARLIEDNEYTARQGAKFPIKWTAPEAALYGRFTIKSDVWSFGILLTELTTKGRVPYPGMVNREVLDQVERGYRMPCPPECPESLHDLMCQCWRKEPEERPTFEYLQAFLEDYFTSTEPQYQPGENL

Broadly, the IC50 is the concentration that gives 50% inhibition. A higher IC50 goes with weaker potency in that assay. As to `N#Cc1cnc2cnc(NCc3ccccc3)cc2c1Nc1ccc(F)c(Cl)c1`, in series [1], the IC50 amounted to 0.073 µM.

Take `N#Cc1cnc2cnc(NCCN3CCOCC3)cc2c1Nc1ccc(Cl)cc1`: the 50% inhibitory concentration (IC50) in [1] was greater than 40 µM.

For `N#Cc1cnc2cnc(NCCCN3CCOCC3)cc2c1Nc1ccc(F)c(Cl)c1`, the midpoint of inhibition in series [1], the IC50, lay at 3.4 µM.

`N#Cc1cnc2cnc(NCCN3CCOCC3)cc2c1Nc1ccc(Cl)c(Cl)c1`: the IC50 in series [1] was 10 µM.

`N#Cc1cnc2cnc(NCCCN3CCCC3)cc2c1Nc1ccc(F)c(Cl)c1`: in [1], the IC50 is 3.57 µM.

Compound `N#Cc1cnc2cnc(NC(CN3CCOCC3)c3ccccc3)cc2c1Nc1ccc(F)c(Cl)c1` (stereo unspecified) had an IC50 in series [1] of 1.8 µM. Against the preceding compound, the IC50 is about 2-fold lower.

Consider `N#Cc1cnc2cnc(NCCN3CCOCC3)cc2c1NCc1ccc(F)c(Cl)c1`, for which the IC50 in [1] was greater than 40 µM.

Consider `N#Cc1cnc2cnc(NCCN3CCOCC3)cc2c1Nc1ccc(S(=O)(=O)c2ccccc2)cc1`, for which, in series [1], the half-maximal inhibitory concentration (IC50) was greater than 40 µM.

`N#Cc1cnc2cnc(NC3CCCC3)cc2c1Nc1ccc(F)c(Cl)c1` showed a half-inhibitory concentration (IC50) in series [1] greater than 40 µM.

For the compound `Cc1c(Br)cccc1Nc1c(C#N)cnc2cnc(NCCN3CCOCC3)cc12`, in series [1], the IC50 is greater than 40 µM.

For `CN1CCN(CCCNc2cc3c(Nc4ccc(F)c(Cl)c4)c(C#N)cnc3cn2)CC1`, in series [1], it took 21 µM to reach half-maximal inhibition (IC50).

A word on the solubility: it is the dissolved amount per volume that the medium holds. `N#Cc1cnc2cnc(NCCN3CCOCC3)cc2c1Nc1ccc(Oc2ccccc2)cc1`: the IC50 at Protein kinase C (PKC) is 200 µM; in [2] it was 90 µM; in series [1], 0.38 µM; in series [3], 0.8 µM; in [4] it was greater than 400 µM. In addition, the solubility in series [5] (read-out: Solubility) was found to be 1 µg/mL (≈ 2.14 µM). Besides, in [6], the fraction unbound was less than 0.01.

Compound `N#Cc1cnc2cnc(NCCN3CCOCC3)cc2c1Nc1ccc(C(F)(F)F)cc1` had an IC50 in series [1] greater than 40 µM.

Compound `N#Cc1cnc2cnc(NCCN3CCOCC3)cc2c1Nc1ccc(Cl)cc1F` showed an IC50 in [1] of 10 µM.

Consider `CN(Cc1ccccc1)c1cc2c(Nc3ccc(F)c(Cl)c3)c(C#N)cnc2cn1`, for which the IC50 in [1] was greater than 40 µM.

For `N#Cc1cnc2cnc(NCc3cccnc3)cc2c1Nc1ccc(F)c(Cl)c1`, the IC50 against Protein kinase C (PKC) is greater than 400 µM; in series [2], greater than 400 µM; in [3], greater than 40 µM; in [4], 110 µM. The solubility in series [5] (read-out: Solubility) worked out at 2 µg/mL (≈ 4.94 µM). Further, the fraction unbound in series [6] was 0.02.

Regarding `N#Cc1cnc2cnc(NCCN3CCOCC3)cc2c1Nc1ccc(Sc2ccccc2)cc1`, the half-maximal inhibitory concentration (IC50) against Protein kinase C (PKC) was greater than 400 µM; in series [2] it was 3 µM; in series [3] it was 0.96 µM; in [4], greater than 400 µM. Besides, the solubility in series [5] (read-out: Solubility) stood at 1 µg/mL (≈ 2.07 µM). Further, the fraction unbound in [6] was less than 0.01.

Take `N#Cc1cnc2cnc(NCCN3CCOCC3)cc2c1Nc1ccc(F)c(Cl)c1`: the IC50 was 30 µM at Protein kinase C (PKC), 40 µM in [2], 15 µM in [3] and greater than 400 µM in series [4]. In addition, the solubility in [5] (read-out: Solubility) turned out to be 64 µg/mL (≈ 150 µM). Moreover, the fraction unbound in series [6] was 0.15.

On to `C[C@H](Nc1cc2c(Nc3ccc(F)c(Cl)c3)c(C#N)cnc2cn1)c1ccccc1`, for which the IC50 in [1] was determined as 27 µM.

As for `CC[C@H](Nc1cc2c(Nc3ccc(F)c(Cl)c3)c(C#N)cnc2cn1)c1ccccc1`, the IC50 in series [1] was greater than 40 µM.

Take `N#Cc1cnc2cnc(NCCN3CCOCC3)cc2c1Nc1ccc(Cc2ccccc2)cc1`: the IC50 against Protein kinase C (PKC) was greater than 400 µM; against MAP kinase p38 it was greater than 400 µM; in [2] it was 4 µM; in series [1], 0.002 µM; in series [3], 0.63 µM; in series [4], greater than 400 µM. The IC50 in series [7] came out at 13.6 µM; in series [8], 0.8 µM. For the same compound, the solubility result in series [5] is given as “Insoluble”. In addition, the fraction unbound in series [6] is 0.01.
